US20250084097A1, “MACROCYCLIC AMIDE COMPOUNDS AND APPLICATION THEREOF” (Medshine Discovery Inc., priority 2021, published 2025)
Where two headings read alike, the source gives them in different places.

Tests used:
Experiment in all cases: Cell proliferation inhibition, CellTiter-Glo
Assay type in all cases: cell-based
[1] = target: Ba/F3-FL-EGFR (L858R) (Homo sapiens, UniProt P00533, L858R, cells depend on it); conditions: 72 hours, read-out: Cell half-maximal inhibition concentration IC50 Ba/F3-FL-EGFR (L858R)
Sequence of Ba/F3-FL-EGFR (L858R) (P00533 whole entry L858R): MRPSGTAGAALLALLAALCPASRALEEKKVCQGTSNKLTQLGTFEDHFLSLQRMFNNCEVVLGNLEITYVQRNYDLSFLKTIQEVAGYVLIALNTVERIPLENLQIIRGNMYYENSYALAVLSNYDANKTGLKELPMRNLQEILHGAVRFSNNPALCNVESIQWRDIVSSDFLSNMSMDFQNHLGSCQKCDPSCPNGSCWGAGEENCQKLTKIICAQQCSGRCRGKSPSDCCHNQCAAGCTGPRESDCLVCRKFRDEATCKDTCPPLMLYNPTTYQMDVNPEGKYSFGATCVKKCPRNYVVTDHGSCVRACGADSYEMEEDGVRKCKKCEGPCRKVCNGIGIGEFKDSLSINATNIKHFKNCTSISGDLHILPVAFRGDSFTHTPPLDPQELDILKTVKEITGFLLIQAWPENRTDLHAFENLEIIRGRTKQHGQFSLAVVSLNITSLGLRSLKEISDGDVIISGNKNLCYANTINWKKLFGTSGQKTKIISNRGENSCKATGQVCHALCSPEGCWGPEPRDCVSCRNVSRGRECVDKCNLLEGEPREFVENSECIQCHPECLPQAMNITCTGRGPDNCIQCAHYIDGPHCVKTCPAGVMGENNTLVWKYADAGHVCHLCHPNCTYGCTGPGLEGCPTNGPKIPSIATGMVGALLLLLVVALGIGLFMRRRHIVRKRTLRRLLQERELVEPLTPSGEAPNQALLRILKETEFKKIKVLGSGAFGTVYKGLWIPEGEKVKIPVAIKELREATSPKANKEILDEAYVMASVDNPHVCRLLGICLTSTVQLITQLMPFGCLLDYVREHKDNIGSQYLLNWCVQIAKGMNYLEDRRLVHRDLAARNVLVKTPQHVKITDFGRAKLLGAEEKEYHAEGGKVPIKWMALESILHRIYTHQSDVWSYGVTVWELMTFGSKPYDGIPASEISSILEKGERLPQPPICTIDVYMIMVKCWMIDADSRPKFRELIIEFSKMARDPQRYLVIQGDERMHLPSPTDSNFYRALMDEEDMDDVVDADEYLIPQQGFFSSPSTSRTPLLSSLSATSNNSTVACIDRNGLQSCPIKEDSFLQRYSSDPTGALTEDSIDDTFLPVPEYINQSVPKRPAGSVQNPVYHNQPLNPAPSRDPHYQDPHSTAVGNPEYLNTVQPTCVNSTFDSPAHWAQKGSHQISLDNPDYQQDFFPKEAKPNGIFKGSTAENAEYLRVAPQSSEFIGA
Method: (§1) AdenosineTri-Phosphate (ATP) is an energy carrier shared by various life activities in nature, and is the smallest unit of energy storage and transfer. The CellTiter-Glo™ living cell assay kit uses luciferase as a detector, and luciferase requires the participation of ATP in the process of luminescence. CellTiter-Glo™ reagent is added to a cell culture medium, and the luminescence value is measured. The light signal is directly proportional to the amount of ATP in the system, and ATP is positively correlated with the number of living cells. Therefore, cell proliferation can be detected by detecting ATP content with the CellTiter-Glo kit. In this assay, the cell lines were Ba/F3-FL-EGFR (L858R/T790M/C797S), Ba/F3-FL-EGFR (WT), Ba/F3-FL-EGFR (L858R), Ba/F3-FL-EGFR (del19-S752-I759), Ba/F3-FL-EGFR (del19-E746-A750/T790M/C797S), Ba/F3-FL-EGFR (L858R/T790M), Ba/F3-FL-EGFR (del19-E746-A750/T790M), Ba/F3-TEL-EGFR (L858R/C797S), Ba/F3-FL-EGFR (del19-E746-A750/C797S) stably transfected cell lines.
(§2) The cell lines were cultured in an incubator at 37° C. and 5% CO2. The cells were periodically passaged, and cells in logarithmic growth phase were taken for plating.
(§3) a) DMSO was used to prepare a 10 mM solution of the compound to be tested, and then the compound to be tested was diluted to 0.3 or 1 mM with DMSO.
(§4) b) Preparation of 1000× compound storage plate (tube): DMSO was used to dilute by 3-fold gradient from the highest concentration to the lowest concentration, with a total of 9 concentrations.
(§5) c) Preparation of 20× compound working solution: 49 μL of cell culture medium was added to a flat-bottomed 96-well transparent drug plate, and 1 μL of compound was pipetted from the 1000× compound storage plate to the cell culture medium of the 96-well transparent drug plate. 1 μL of DMSO was added to the vehicle control. After adding compound or DMSO, the well content was mixed to uniform by aspiration and expelling with pipette.
(§6) a) Cells were stained with trypan blue and viable cells were counted. The cell viability rate was required to be above 90%.
(§7) b) 95 μL of cell suspension (2000 cells/well) was added to each well of the compound detection cell plate, and culture medium without cells (containing 0.1% DMSO) was added to the Min control well.
(§8) c) Dosing in the compound detection cell plate: 5 μL of 20× compound working solution was added to the cell culture plate. 5 μL of DMSO-cell culture mixture was added to the Max control. The final concentration of DMSO was 0.1%.
(§9) d) The culture plate was incubated in an incubator at 37° C., 5% CO2 for 72 hours.
(§10) The following steps were performed according to the instruction of Promega CellTiter-Glo luminescence cell viability detection kit (Promega-G7573). • a) The CellTiter-Glo buffer was thawed and allowed to stand to reach room temperature; • b) CellTiter-Glo substrate was allowed to stand to reach room temperature; • c) CellTiter-Glo buffer was added to CellTiter-Glo substrate in a bottle to dissolve the substrate to formulate CellTiter-Glo working solution; • d) The working solution was vortexed slowly for fully dissolution; • e) The cell culture plates were taken out and allowed to stand for 10 minutes to equilibrate to room temperature; • f) 50 μL (equal to half the volume of cell culture solution in each well) of Cell Titer-Glo working solution was added into each well. • g) The culture plates were shaken on an orbital shaker for 2 minutes to induce cell lysis; • h) The culture plates were left at room temperature for 10 minutes to stabilize the luminescence signal; • i) The luminous signal was detected on the PerkinElmer EnVision®2105 plate reader.
(§11) By PerkinElmer EnVision®2105 reading, the corresponding […] value RLU for each well was yielded.
(§12) Cell proliferation inhibition rate (Inhibition Rate) data were processed using the following formula:
(§13) Inhibition Rate (Inh %)=100−(RLUDrug−RLUMin)/(RLUMax−RLUMin)*100%. […]

[2] = target: Ba/F3-FL-EGFR (L858R/T790M) (Homo sapiens, UniProt P00533, T790M/L858R, cells depend on it)
Method: as §1, §2, §3, §4, §5, §6, §7, §8, §9, §10, §11, §12, §13

[3] = target: Ba/F3-FL-EGFR (WT) (Homo sapiens, UniProt P00533)
Sequence of Ba/F3-FL-EGFR (WT) (P00533 whole entry, change not shown): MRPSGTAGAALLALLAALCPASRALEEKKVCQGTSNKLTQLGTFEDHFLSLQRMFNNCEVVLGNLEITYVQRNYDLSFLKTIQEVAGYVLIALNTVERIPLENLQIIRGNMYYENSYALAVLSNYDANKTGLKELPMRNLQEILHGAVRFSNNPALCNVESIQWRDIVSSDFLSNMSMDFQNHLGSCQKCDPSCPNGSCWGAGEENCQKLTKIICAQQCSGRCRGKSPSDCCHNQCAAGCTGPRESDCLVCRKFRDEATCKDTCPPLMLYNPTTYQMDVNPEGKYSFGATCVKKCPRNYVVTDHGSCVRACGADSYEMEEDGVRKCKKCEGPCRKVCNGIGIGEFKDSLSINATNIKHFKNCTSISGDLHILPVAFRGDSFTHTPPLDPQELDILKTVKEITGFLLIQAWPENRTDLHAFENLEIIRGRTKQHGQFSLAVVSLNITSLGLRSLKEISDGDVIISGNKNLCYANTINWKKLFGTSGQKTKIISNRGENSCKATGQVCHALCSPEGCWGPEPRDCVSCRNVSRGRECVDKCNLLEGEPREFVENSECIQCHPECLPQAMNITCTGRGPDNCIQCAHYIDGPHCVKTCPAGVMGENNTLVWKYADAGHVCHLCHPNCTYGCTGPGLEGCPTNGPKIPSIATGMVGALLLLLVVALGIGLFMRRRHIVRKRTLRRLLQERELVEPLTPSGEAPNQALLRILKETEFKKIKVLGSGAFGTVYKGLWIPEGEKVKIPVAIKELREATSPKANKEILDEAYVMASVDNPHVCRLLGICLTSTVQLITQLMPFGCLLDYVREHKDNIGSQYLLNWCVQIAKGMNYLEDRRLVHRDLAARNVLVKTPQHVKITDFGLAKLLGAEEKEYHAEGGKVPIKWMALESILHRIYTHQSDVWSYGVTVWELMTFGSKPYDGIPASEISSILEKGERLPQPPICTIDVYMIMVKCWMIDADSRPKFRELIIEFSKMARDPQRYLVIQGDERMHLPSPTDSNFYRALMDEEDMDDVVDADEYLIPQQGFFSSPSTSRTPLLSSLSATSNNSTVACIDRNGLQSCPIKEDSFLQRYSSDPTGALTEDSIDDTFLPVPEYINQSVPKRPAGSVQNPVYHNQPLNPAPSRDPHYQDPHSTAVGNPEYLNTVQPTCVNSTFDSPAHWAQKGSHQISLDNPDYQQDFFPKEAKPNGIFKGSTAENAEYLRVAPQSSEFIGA
Method: as §1, §2, §3, §4, §5, §6, §7, §8, §9, §10, §11, §12, §13

[4] = target: Ba/F3-FL-EGFR (del19-E746-A750/T790M) (Homo sapiens, UniProt P00533, DEL746-750/T790M, cells depend on it)
Sequence of Ba/F3-FL-EGFR (del19-E746-A750/T790M) (P00533 with tags, fused parts or gaps DEL746-750/T790M): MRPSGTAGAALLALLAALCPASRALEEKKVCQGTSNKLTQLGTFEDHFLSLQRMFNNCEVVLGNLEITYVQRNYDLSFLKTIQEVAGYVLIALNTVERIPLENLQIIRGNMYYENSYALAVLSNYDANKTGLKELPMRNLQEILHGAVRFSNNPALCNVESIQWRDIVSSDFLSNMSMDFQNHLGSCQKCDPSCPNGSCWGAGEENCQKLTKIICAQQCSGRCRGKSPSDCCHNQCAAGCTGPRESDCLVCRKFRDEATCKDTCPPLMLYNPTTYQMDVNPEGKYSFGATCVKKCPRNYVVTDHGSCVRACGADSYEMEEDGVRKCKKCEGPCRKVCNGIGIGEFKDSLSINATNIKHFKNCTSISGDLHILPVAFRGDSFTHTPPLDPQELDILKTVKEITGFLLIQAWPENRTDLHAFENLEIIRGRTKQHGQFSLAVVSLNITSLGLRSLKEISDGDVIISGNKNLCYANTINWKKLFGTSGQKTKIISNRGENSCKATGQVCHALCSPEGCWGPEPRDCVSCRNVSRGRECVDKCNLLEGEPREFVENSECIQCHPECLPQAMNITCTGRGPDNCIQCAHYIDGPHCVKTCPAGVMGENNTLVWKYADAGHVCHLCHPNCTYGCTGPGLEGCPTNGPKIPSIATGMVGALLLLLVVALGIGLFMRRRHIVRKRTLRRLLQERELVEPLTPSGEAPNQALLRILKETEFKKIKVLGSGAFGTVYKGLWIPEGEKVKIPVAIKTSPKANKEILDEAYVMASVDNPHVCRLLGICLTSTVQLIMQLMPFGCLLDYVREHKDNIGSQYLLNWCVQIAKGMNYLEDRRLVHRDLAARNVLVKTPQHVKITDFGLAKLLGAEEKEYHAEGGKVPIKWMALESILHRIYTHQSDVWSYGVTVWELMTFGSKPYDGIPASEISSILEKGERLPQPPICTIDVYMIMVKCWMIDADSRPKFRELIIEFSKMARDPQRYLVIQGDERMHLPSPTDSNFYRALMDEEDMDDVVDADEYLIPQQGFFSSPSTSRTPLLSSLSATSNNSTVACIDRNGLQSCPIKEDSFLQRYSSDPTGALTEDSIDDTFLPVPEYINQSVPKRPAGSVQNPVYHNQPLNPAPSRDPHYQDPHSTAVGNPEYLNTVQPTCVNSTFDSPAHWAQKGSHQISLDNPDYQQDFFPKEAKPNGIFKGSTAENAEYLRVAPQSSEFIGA
Method: as §1, §2, §3, §4, §5, §6, §7, §8, §9, §10, §11, §12, §13

[5] = target: Ba/F3-FL-EGFR (del19-E746-A750/T790M/C797S) (Homo sapiens, UniProt P00533, DEL746-750/T790M/C797S, cells depend on it); conditions: 72 hours, read-out: Cell half-maximal inhibition concentration IC50 Ba/F3-FL-EGFR (del19-E746-A750/T790M/C797S)
Method: as §1, §2, §3, §4, §5, §6, §7, §8, §9, §10, §11, §12, §13

[6] = target: Ba/F3-FL-EGFR (del19-S752-I759) (Homo sapiens, UniProt P00533, DEL752-759, cells depend on it); conditions: 72 hours, read-out: Cell half-maximal inhibition concentration IC50 Ba/F3-FL-EGFR (del19-S752-I759)
Sequence of Ba/F3-FL-EGFR (del19-S752-I759) (P00533 with tags, fused parts or gaps DEL752-759): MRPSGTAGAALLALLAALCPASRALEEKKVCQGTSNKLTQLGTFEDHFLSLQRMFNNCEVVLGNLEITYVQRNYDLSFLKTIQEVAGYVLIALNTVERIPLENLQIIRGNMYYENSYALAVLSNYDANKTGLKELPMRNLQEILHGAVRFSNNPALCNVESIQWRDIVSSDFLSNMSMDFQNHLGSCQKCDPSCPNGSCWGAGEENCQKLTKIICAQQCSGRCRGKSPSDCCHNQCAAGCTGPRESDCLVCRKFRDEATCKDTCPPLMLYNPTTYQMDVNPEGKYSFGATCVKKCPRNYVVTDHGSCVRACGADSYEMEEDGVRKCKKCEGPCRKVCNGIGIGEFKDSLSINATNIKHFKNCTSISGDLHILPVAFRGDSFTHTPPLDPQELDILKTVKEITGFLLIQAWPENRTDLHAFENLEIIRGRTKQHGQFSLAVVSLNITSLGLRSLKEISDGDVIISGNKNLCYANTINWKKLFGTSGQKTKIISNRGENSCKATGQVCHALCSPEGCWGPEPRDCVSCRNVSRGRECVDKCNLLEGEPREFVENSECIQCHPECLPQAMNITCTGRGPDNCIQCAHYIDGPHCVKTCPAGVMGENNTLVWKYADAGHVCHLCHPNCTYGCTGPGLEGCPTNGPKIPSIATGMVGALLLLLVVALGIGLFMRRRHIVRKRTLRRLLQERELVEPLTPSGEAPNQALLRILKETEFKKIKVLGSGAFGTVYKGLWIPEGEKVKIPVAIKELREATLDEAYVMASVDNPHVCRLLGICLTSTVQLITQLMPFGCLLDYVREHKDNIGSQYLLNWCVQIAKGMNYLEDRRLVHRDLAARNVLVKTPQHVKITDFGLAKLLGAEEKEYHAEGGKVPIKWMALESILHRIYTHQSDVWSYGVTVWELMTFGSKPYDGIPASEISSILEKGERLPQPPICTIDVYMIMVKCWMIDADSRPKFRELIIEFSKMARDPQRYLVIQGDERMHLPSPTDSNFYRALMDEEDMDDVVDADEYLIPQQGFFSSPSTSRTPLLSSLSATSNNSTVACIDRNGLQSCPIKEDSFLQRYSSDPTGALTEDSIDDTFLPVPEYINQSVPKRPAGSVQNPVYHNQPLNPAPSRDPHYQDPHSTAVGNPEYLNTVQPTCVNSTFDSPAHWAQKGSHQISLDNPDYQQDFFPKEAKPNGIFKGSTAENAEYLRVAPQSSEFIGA
Method: as §1, §2, §3, §4, §5, §6, §7, §8, §9, §10, §11, §12, §13

[7] = target: T1, Ba/F3-TEL-EGFR (L858R/C797S) (Homo sapiens, UniProt P00533, C797S/L858R, cells depend on it)
T1 construct: fused on or other part: TEL (ETV6) N-terminal oligomerising part fused to the EGFR kinase part; P41212 (Transcription factor ETV6)
Method: as §1, §2, §3, §4, §5, §6, §7, §8, §9, §10, §11, §12, §13

[8] = 72 hours, read-out: Cell half-maximal inhibition concentration IC50 Ba/F3-FL-EGFR (L858R/T790M)
[9] = 72 hours, read-out: Cell half-maximal inhibition concentration IC50 Ba/F3-FL-EGFR (WT)
[10] = 72 hours, read-out: Cell half-maximal inhibition concentration IC50 Ba/F3-FL-EGFR (del19-E746-A750/T790M)
[11] = 72 hours, read-out: Cell half-maximal inhibition concentration IC50 Ba/F3-TEL-EGFR (L858R/C797S)

SMILES | GI50 [1] [nM] | GI50 [2, 8] [nM] | GI50 [3, 9] [nM] | GI50 [4, 10] [nM] | GI50 [5] [nM] | GI50 [6] [nM] | GI50 [7, 11] [nM] | GI50 ([2]; read-out: Cell half-maximal inhibition concentration IC50 Ba/F3-FL-EGFR (L858R/T790M), 72 hours) [nM] | GI50 ([3]; read-out: Cell half-maximal inhibition concentration IC50 Ba/F3-FL-EGFR (WT), 72 hours) [nM] | GI50 ([4]; read-out: Cell half-maximal inhibition concentration IC50 Ba/F3-FL-EGFR (del19-E746-A750/T790M), 72 hours) [nM] | GI50 ([7]; read-out: Cell half-maximal inhibition concentration IC50 Ba/F3-TEL-EGFR (L858R/C797S), 72 hours) [nM]
Cc1cc2cc(n1)-c1cnn(C)c1OC[C@H]1CC[C@H](C1)CN1/C(=N/C2=O)Nc2ccc(N=S(C)(C)=O)cc21 (single isomer, unassigned) [WX-027A] | 39.6 | 14.3 | 295 | 1.9 | 1.2 | 12.9 | 5.2 |  |  |  | 
Cc1cc2cc(n1)-c1cnn(C)c1OCCC[C@@H](C)CN1/C(=N/C2=O)Nc2ccc(N=S(C)(C)=O)c(Cl)c21 [WX-019] | 42.2 | 16.8 | 303 | 2.9 | 1.3 | 15.6 | 7.3 |  |  |  | 
Cc1cc2cc(n1)-c1cnn(C)c1OCCC[C@@H](C)CN1/C(=N/C2=O)Nc2ccc(N=S3(=O)CCOCC3)cc21 [WX-013] |  |  |  |  |  |  |  | 12.1 | 123 | 0.6 | 3.1
Cc1cc2cc(n1)-c1cnn(C)c1OCCC[C@@H](C)CN1/C(=N/C2=O)Nc2ccc(N=S3(=O)CCCC3)cc21 [WX-010 (trifluoroacetate)] | 14 | 10.5 | 86 | 0.4 | 0.8 | 11.2 | 3 |  |  |  | 
Cc1cc2cc(n1)-c1cnn(C)c1OCCC[C@@H](C)CN1/C(=N/C2=O)Nc2ccc(N=S(C)(C)=O)cc21 [WX-006] | 18.6 | 12.9 | 111 | 0.8 | 0.6 | 15.4 | 3.1 |  |  |  | 
